# Test results reported in US8242124B2, “Diketopiperidine derivatives as HIV attachment inhibitors” (priority 2008, dated 2012).
# System: HIV-1 single-round infectious reporter virus
# Assay: Single-round infectious HIV-1 reporter virus (luciferase) infection assay in HeLa CD4 cells
# Conditions: Human immunodeficiency virus 1, HeLa, 72 h, read-out: HIV_SC10PT (EC50, nM)
# Method: 2. Compound was added in a 2 μl dimethylsulfoxide solution, so that the final assay concentration would be ≦10 μM.
# 3. 100 μl of single-round infectious reporter virus in Dulbecco's Modified Eagle Medium was then added to the plated cells and compound at an approximate multiplicity of infection (MOI) of 0.01, resulting in a final volume of 200 μl per well.
# 4. Virally-infected cells were incubated at 37 degrees Celsius, in a CO2 incubator, and harvested 72 h after infection.
# 5. Viral infection was monitored by measuring luciferase expression from viral DNA in the infected cells using a luciferase reporter gene assay kit, as described by the manufacturer (Roche Molecular Biochemicals, Indianapolis, Ind.). Infected cell supernatants were removed and 50 μl of lysis buffer was added per well. After 15 minutes, 50 μl of freshly-reconstituted luciferase assay reagent was added per well. Luciferase activity was then quantified by measuring luminescence using a Wallac MICROBETA® scintillation counter.
# 7. An EC50 provides a method for comparing the antiviral potency of the compounds of this disclosure. The effective concentration for fifty percent inhibition (EC50) was calculated with the Microsoft Excel Xlfit curve fitting software.
row,SMILES,EC50 [nM]
1,"COc1cnc(-n2cnc(C)n2)c2[nH]cc(C(=O)C(=O)N3CCc4c(cccc4-c4ccccc4)C3)c12 [Compound 1, 1-(4-methoxy-7-(3-methyl-1H-1,2,4-triazol-1-yl)-1H-pyrrolo[2,3-c]pyridin-3-yl)-2-(5-phenyl-3,4-dihydroisoquinolin-2(1H)-yl)ethane-1,2-dione]",0.02
2,"COc1cnc(-c2cc(C(=O)NCCO)[nH]n2)c2[nH]cc(C(=O)C(=O)N3CCc4c(cccc4-c4ccccn4)C3)c12 [Compound 9, N-(2-hydroxyethyl)-3-(4-methoxy-3-(2-oxo-2-(5-(pyridin-2-yl)-3,4-dihydroisoquinolin-2(1H)-yl)acetyl)-1H-pyrrolo[2,3-c]pyridin-7-yl)-1H-pyrazole-5-carboxamide]",0.17
3,"COc1cnc(Cl)c2[nH]cc(C(=O)C(=O)N3CCc4c(cccc4-c4ccccn4)C3)c12 [Compound 30, 1-(7-chloro-4-methoxy-1H-pyrrolo[2,3-c]pyridin-3-yl)-2-(5-(pyridin-2-yl)-3,4-dihydroisoquinolin-2(1H)-yl)ethane-1,2-dione]",171

# Same assay, conditions: Human immunodeficiency virus 1, HeLa, 72 h, read-out: HIV_SC10PT (EC50, nM), group symbol
row,SMILES,EC50 [nM]
1,"COc1cnc(-n2cnc(C)n2)c2[nH]cc(C(=O)C(=O)N3CCc4c(cccc4-c4ccccn4)C3)c12 [Compound 2, 1-(4-methoxy-7-(3-methyl-1H-1,2,4-triazol-1-yl)-1H-pyrrolo[2,3-c]pyridin-3-yl)-2-(5-(pyridin-2-yl)-3,4-dihydroisoquinolin-2(1H)-yl)ethane-1,2-dione]",< 100
2,"CNC(=O)c1cc(-c2ncc(OC)c3c(C(=O)C(=O)N4CCc5c(cccc5-c5ccccn5)C4)c[nH]c23)n[nH]1 [Compound 4, 3-(4-methoxy-3-(2-oxo-2-(5-(pyridin-2-yl)-3,4-dihydroisoquinolin-2(1H)-yl)acetyl)-1H-pyrrolo[2,3-c]pyridin-7-yl)-N-methyl-1H-pyrazole-5-carboxamide]",< 100
3,"CNC(=O)c1ncc(OC)c2c(C(=O)C(=O)N3CCc4c(cccc4-c4ccccn4)C3)c[nH]c12 [Compound 5, 4-methoxy-N-methyl-3-(2-oxo-2-(5-(pyridin-2-yl)-3,4-dihydroisoquinolin-2(1H)-yl)acetyl)-1H-pyrrolo[2,3-c]pyridine-7-carboxamide]",< 100
4,"COc1cnc(C(=O)NCCO)c2[nH]cc(C(=O)C(=O)N3CCc4c(cccc4-c4ccccn4)C3)c12 [Compound 6, N-(2-hydroxyethyl)-4-methoxy-3-(2-oxo-2-(5-(pyridin-2-yl)-3,4-dihydroisoquinolin-2(1H)-yl)acetyl)-1H-pyrrolo[2,3-c]pyridine-7-carboxamide]",< 100
5,"COc1cnc(-c2cc(C(=O)O)[nH]n2)c2[nH]cc(C(=O)C(=O)N3CCc4c(cccc4-c4ccccn4)C3)c12 [Compound 7, 3-(4-methoxy-3-(2-oxo-2-(5-(pyridin-2-yl)-3,4-dihydroisoquinolin-2(1H)-yl)acetyl)-1H-pyrrolo[2,3-c]pyridin-7-yl)-1H-pyrazole-5-carboxylic acid]",< 100
6,"COc1cnc(-c2cc(C(=O)N(C)C)[nH]n2)c2[nH]cc(C(=O)C(=O)N3CCc4c(cccc4-c4ccccn4)C3)c12 [Compound 8, 3-(4-methoxy-3-(2-oxo-2-(5-(pyridin-2-yl)-3,4-dihydroisoquinolin-2(1H)-yl)acetyl)-1H-pyrrolo[2,3-c]pyridin-7-yl)-N,N-dimethyl-1H-pyrazole-5-carboxamide]",< 100
7,"COc1cnc(-n2ccc(C(F)(F)F)n2)c2[nH]cc(C(=O)C(=O)N3CCc4c(cccc4-c4ccccn4)C3)c12 [Compound 10, 1-(4-methoxy-7-(3-(trifluoromethyl)-1H-pyrazol-1-yl)-1H-pyrrolo[2,3-c]pyridin-3-yl)-2-(5-(pyridin-2-yl)-3,4-dihydroisoquinolin-2(1H)-yl)ethane-1,2-dione]",< 100
8,"COc1cnc(-n2cncn2)c2[nH]cc(C(=O)C(=O)N3CCc4c(cccc4-c4ccccn4)C3)c12 [Compound 11, 1-(4-methoxy-7-(1H-1,2,4-triazol-1-yl)-1H-pyrrolo[2,3-c]pyridin-3-yl)-2-(5-(pyridin-2-yl)-3,4-dihydroisoquinolin-2(1H)-yl)ethane-1,2-dione]",< 100
9,"COc1cnc(-n2cnc(C(F)(F)F)n2)c2[nH]cc(C(=O)C(=O)N3CCc4c(cccc4-c4ccccn4)C3)c12 [Compound 12, 1-(4-methoxy-7-(3-(trifluoromethyl)-1H-1,2,4-triazol-1-yl)-1H-pyrrolo[2,3-c]pyridin-3-yl)-2-(5-(pyridin-2-yl)-3,4-dihydroisoquinolin-2(1H)-yl)ethane-1,2-dione]",< 100
10,"COCc1ncnn1-c1ncc(OC)c2c(C(=O)C(=O)N3CCc4c(cccc4-c4ccccn4)C3)c[nH]c12 [Compound 13, 1-(4-methoxy-7-(5-(methoxymethyl)-1H-1,2,4-triazol-1-yl)-1H-pyrrolo[2,3-c]pyridin-3-yl)-2-(5-(pyridin-2-yl)-3,4-dihydroisoquinolin-2(1H)-yl)ethane-1,2-dione]",< 100
11,"COCc1ncn(-c2ncc(OC)c3c(C(=O)C(=O)N4CCc5c(cccc5-c5ccccn5)C4)c[nH]c23)n1 [Compound 14, 1-(4-methoxy-7-(3-(methoxymethyl)-1H-1,2,4-triazol-1-yl)-1H-pyrrolo[2,3-c]pyridin-3-yl)-2-(5-(pyridin-2-yl)-3,4-dihydroisoquinolin-2(1H)-yl)ethane-1,2-dione]",< 100
12,"COc1cnc(-n2cnc(C(C)(F)F)n2)c2[nH]cc(C(=O)C(=O)N3CCc4c(cccc4-c4ccccn4)C3)c12 [Compound 17, 1-(7-(3-(1,1-difluoroethyl)-1H-1,2,4-triazol-1-yl)-4-methoxy-1H-pyrrolo[2,3-c]pyridin-3-yl)-2-(5-(pyridin-2-yl)-3,4-dihydroisoquinolin-2(1H)-yl)ethane-1,2-dione]",< 100
13,"COc1cnc(-n2ccnn2)c2[nH]cc(C(=O)C(=O)N3CCc4c(ncnc4-c4ccccn4)C3)c12 [Compound 19, 1-(4-methoxy-7-(1H-1,2,3-triazol-1-yl)-1H-pyrrolo[2,3-c]pyridin-3-yl)-2-(4-(pyridin-2-yl)-5,6-dihydropyrido[3,4-d]pyrimidin-7(8H)-yl)ethane-1,2-dione]",< 100
14,"COc1cnc(-c2cc(CO)[nH]n2)c2[nH]cc(C(=O)C(=O)N3CCc4c(ncnc4-c4ccccn4)C3)c12 [Compound 21, 1-(7-(5-(hydroxymethyl)-1H-pyrazol-3-yl)-4-methoxy-1H-pyrrolo[2,3-c]pyridin-3-yl)-2-(4-(pyridin-2-yl)-5,6-dihydropyrido[3,4-d]pyrimidin-7(8H)-yl)ethane-1,2-dione]",< 100
15,"COc1cnc(-c2cc(C(C)(C)O)[nH]n2)c2[nH]cc(C(=O)C(=O)N3CCc4c(ncnc4-c4ccccn4)C3)c12 [Compound 22, 1-(7-(5-(2-hydroxypropan-2-yl)-1H-pyrazol-3-yl)-4-methoxy-1H-pyrrolo[2,3-c]pyridin-3-yl)-2-(4-(pyridin-2-yl)-5,6-dihydropyrido[3,4-d]pyrimidin-7(8H)-yl)ethane-1,2-dione]",< 100
16,"COc1cnc(-n2cnc(CO)n2)c2[nH]cc(C(=O)C(=O)N3CCc4c(ncnc4-c4ccccn4)C3)c12 [Compound 23, 1-(7-(3-(hydroxymethyl)-1H-1,2,4-triazol-1-yl)-4-methoxy-1H-pyrrolo[2,3-c]pyridin-3-yl)-2-(4-(pyridin-2-yl)-5,6-dihydropyrido[3,4-d]pyrimidin-7(8H)-yl)ethane-1,2-dione]",< 100
17,"COc1cnc(-n2cnc(C(C)O)n2)c2[nH]cc(C(=O)C(=O)N3CCc4c(ncnc4-c4ccccn4)C3)c12 (stereo not shown) [Compound 24, 1-(7-(3-(1-hydroxyethyl)-1H-1,2,4-triazol-1-yl)-4-methoxy-1H-pyrrolo[2,3-c]pyridin-3-yl)-2-(4-(pyridin-2-yl)-5,6-dihydropyrido[3,4-d]pyrimidin-7(8H)-yl)ethane-1,2-dione]",< 100
18,"COc1cnc(-n2cnc(C)n2)c2[nH]cc(C(=O)C(=O)N3CCc4c(cc(C#N)c(=O)n4-c4ccccc4)C3)c12 [Compound 25, 6-(2-(4-methoxy-7-(3-methyl-1H-1,2,4-triazol-1-yl)-1H-pyrrolo[2,3-c]pyridin-3-yl)-2-oxoacetyl)-2-oxo-1-phenyl-1,2,5,6,7,8-hexahydro-1,6-naphthyridine-3-carbonitrile]",< 100
19,"COc1cnc(-n2cnc(C)n2)c2[nH]cc(C(=O)C(=O)N3CCc4c(ccnc4-c4ccccn4)C3)c12 [Compound 26, 1-(4-methoxy-7-(3-methyl-1H-1,2,4-triazol-1-yl)-1H-pyrrolo[2,3-c]pyridin-3-yl)-2-(5-(pyridin-2-yl)-3,4-dihydro-2,6-naphthyridin-2(1H)-yl)ethane-1,2-dione]",< 100
20,"COc1cnc(-n2cnc(C)n2)c2[nH]cc(C(=O)C(=O)N3CCc4c(ccnc4-c4ccccc4)C3)c12 [Compound 27, 1-(4-methoxy-7-(3-methyl-1H-1,2,4-triazol-1-yl)-1H-pyrrolo[2,3-c]pyridin-3-yl)-2-(5-phenyl-3,4-dihydro-2,6-naphthyridin-2(1H)-yl)ethane-1,2-dione]",< 100
21,"COc1cnc(-n2cnc(C)n2)c2[nH]cc(C(=O)C(=O)N3CCc4c(-c5ccccn5)cccc4C3O)c12 (stereo not shown) [Compound 28, 1-(1-hydroxy-5-(pyridin-2-yl)-3,4-dihydroisoquinolin-2(1H)-yl)-2-(4-methoxy-7-(3-methyl-1H-1,2,4-triazol-1-yl)-1H-pyrrolo[2,3-c]pyridin-3-yl)ethane-1,2-dione]",< 100
22,"COc1cnc(-c2cc(CO)[nH]n2)c2[nH]cc(C(=O)C(=O)N3CCc4c(cccc4-c4ccccn4)C3)c12 [Compound 29, 1-(7-(5-(hydroxymethyl)-1H-pyrazol-3-yl)-4-methoxy-1H-pyrrolo[2,3-c]pyridin-3-yl)-2-(5-(pyridin-2-yl)-3,4-dihydroisoquinolin-2(1H)-yl)ethane-1,2-dione]",< 100
